Measurements from publication PMC8348780, “Preparation and Evaluation of Novel Folate Isonitrile ^99mTc Complexes as Potential Tumor Imaging Agents to Target Folate Receptors” (Molecules, 2021).

Legend:
[1] = Partition coefficient, 1-octanol / phosphate buffer pH 7.4; type: physicochemical; conditions: 1-octanol / phosphate buffer 0.025 M
Experimental: The partition coefficient was measured as follows: 1.9 mL of phosphate buffer solution (0.025 M, pH 7.4), 2.0 mL of 1-octanol, and 0.1 mL of ^99mTc-CN5FA or ^99mTc-CNPFA solution were added to the centrifuge tube, and the sample was swirled for 5 min and centrifuged for 5 min (3000 r/min). Then, the radioactivity counts of the two phases were measured by taking 0.1 mL from the organic phase and the water phase. The partition coefficient P was calculated. The final partition coefficient was expressed as log P ± SD.

KB tumor-bearing mice [2] = experiment: SPECT/CT imaging study in KB tumor-bearing mice; type: in vivo, BALB/c nude mice; conditions: 2 h post injection, about 18.5 MBq i.v.
Experimental: The SPECT/CT imaging experiments were also divided into a normal group and an inhibition group (n = 3). The labeled solution (about 18.5 MBq) was injected into the tail vein of nude mice bearing KB tumor. The inhibition group was injected with 100 µg FA (about 4 × 10^4 µg/kg) 30 min in advance. After 2 h, the SPECT/CT scan was performed in anesthetized mice by using 1.5% isoflurane. The SPECT acquisition (peak value 140 keV, 20% width, 90° rotation, MMP 919 Collimator) was performed after 4 min of CT scanning (512 views, 2 × 2 binding, 75 kV, exposure time 230 ms). SPECT/CT images were made using HiSPECT software and vivoquant 2.5 software.

KB tumor-bearing mice [3] = experiment: Biodistribution study in KB tumor-bearing mice; type: in vivo, BALB/c nude mice; conditions: for Tumor uptake: KB tumor
Experimental: The biodistribution experiments were divided into normal groups and inhibition groups (n = 3), in which the inhibition group was injected with inhibitor (about 4 × 10^4 µg/kg) 30 min in advance. The KB tumor-bearing mice were decapitated 30 and 120 min after the tail vein injection of 0.1 mL labeled solution (about 7.4 × 10^4 Bq). The heart, liver, lung, kidney, spleen, stomach, bone, muscle, intestine, tumor, blood, and other related tissues and organs were wiped clean and weighed, and the radioactivity count was measured. Each tissue per gram of injection dose (%ID/g) was calculated.

[4] = target: T1, folate receptor (KB cells) (Homo sapiens, UniProt P15328); experiment: In vitro competitive binding with KB cells; conditions: 37 °C, 2 h, competitive binding with inhibitor
T1 construct: endogenous in cells; host or cells: KB cells
T1 sequence (P15328 25-257): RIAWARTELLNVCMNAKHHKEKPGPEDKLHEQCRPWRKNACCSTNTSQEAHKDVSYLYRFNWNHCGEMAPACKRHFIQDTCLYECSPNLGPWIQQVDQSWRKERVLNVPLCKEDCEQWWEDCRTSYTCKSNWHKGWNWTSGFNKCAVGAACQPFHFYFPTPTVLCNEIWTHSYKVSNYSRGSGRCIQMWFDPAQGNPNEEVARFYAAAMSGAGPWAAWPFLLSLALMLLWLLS
Experimental: KB cells were cultured with FFRPMI 1640 medium 24 h in advance on a 48-well plate with 5 × 10^4 cells per well. The labeling solution was diluted to 5 μCi/mL with the same medium after growing, and the inhibitor was prepared at different concentrations. The 48-well plates were divided into eight groups, and each group was incubated with 100 μL of inhibitor solution, 100 μL of diluted labeled solution (5 μCi/mL), and 200 μL of medium at 37 °C for 2 h.
After removing the cell plate from the incubator, the medium was removed, and the cells were washed with PBS (0.1 M, pH 7.4). The washed cells were lysed with NaOH (1 M) for 5 min. Pyrolysates were collected in the hoses, and the radioactivity count of each hose was measured by a γ-counter. The data were analyzed with GraphPad Prism 5.0 and nonlinearly fit to the log IC50 ± SD value.

[5] = Stability in saline / radiolabeling solution at room temperature (RCP by radio-HPLC); type: physicochemical; conditions: 4 h
Experimental: (§1) The complexes were determined by ITLC/SG of the ACD system and radio-HPLC. The ITLC/SG trip was cut into 10 equal parts, and radioactive counting of ITLC strips was determined by a γ-counter. ITLC results of both complexes were as follows: in ACD solution, [^99mTc]Tc-CN5FA and [^99mTc]Tc-CNPFA stayed at the origin (Rf = 0–0.1), while ^99mTcO4^− (Rf = 0.9–1.0) and ^99mTcO2·nH2O (Rf = 0.8–1.0) were moved to the front. Radio-HPLC was analyzed by a mobile phase system consisting of 0.1% TFA water (solvent A) and 0.1% TFA acetonitrile (solvent B) with a gradient of 0−2 min 10% B, 2−5 min 10%−90% B, 10−20 min 90% B, and 20−25 min 90%−10% B (system B) at a flow rate of 1 mL/min. All experiments were performed in triplicate.
(§2) The stability of [^99mTc]Tc-CN5FA and [^99mTc]Tc-CNPFA in vitro was evaluated by measuring the RCP of the complexes. Stability in saline was achieved by holding the solution at room temperature for 4 h. Stability in the serum was achieved by mixing 100 μL of [^99mTc]Tc-CN5FA or [^99mTc]Tc-CNPFA with 200 μL of mouse serum at 37 °C for 4 h. After precipitation using acetonitrile, centrifugation, and concentration, the solutions were analyzed by radio-HPLC.

[6] = Stability in mouse serum at 37 °C (RCP by radio-HPLC); type: in vitro ADME; conditions: 4 h
Experimental: as §1, §2

[7] = 2 h p.i., block: FA about 4 × 10^4 µg/kg 30 min in advance

Q: With `[99Tc+].[C-]#[N+]CCCCCC(=O)NCCNC(=O)CC[C@H](NC(=O)c1ccc(NCc2cnc3nc(N)[nH]c(=O)c3n2)cc1)C(=O)O.[C-]#[N+]CCCCCC(=O)NCCNC(=O)CC[C@H](NC(=O)c1ccc(NCc2cnc3nc(N)[nH]c(=O)c3n2)cc1)C(=O)O.[C-]#[N+]CCCCCC(=O)NCCNC(=O)CC[C@H](NC(=O)c1ccc(NCc2cnc3nc(N)[nH]c(=O)c3n2)cc1)C(=O)O.[C-]#[N+]CCCCCC(=O)NCCNC(=O)CC[C@H](NC(=O)c1ccc(NCc2cnc3nc(N)[nH]c(=O)c3n2)cc1)C(=O)O.[C-]#[N+]CCCCCC(=O)NCCNC(=O)CC[C@H](NC(=O)c1ccc(NCc2cnc3nc(N)[nH]c(=O)c3n2)cc1)C(=O)O.[C-]#[N+]CCCCCC(=O)NCCNC(=O)CC[C@H](NC(=O)c1ccc(NCc2cnc3nc(N)[nH]c(=O)c3n2)cc1)C(=O)O` [[^99mTc]Tc-CN5FA] as the compound, how does the “log P” value [1] read?
A: −1.92 ± 0.15

Q: And the “Visualization of tumor lesions by SPECT/CT” value (KB tumor-bearing mice [2])?
A: clearly visualized

Q: What about the “T/B (tumor/blood ratio)” value (KB tumor-bearing mice [3]; 0.5 h p.i.) of the same compound?
A: 1.28

Q: And the “T/M (tumor/muscle ratio)” value (KB tumor-bearing mice [3]; 0.5 h p.i.)?
A: 1.76

Q: What about the Blood uptake (KB tumor-bearing mice [3]; 0.5 h p.i., i.v., n = 3) of the same compound?
A: 2.36 ± 0.10 %ID/g

Q: And the Bone uptake (KB tumor-bearing mice [3]; 0.5 h p.i., i.v., n = 3)?
A: 1.03 ± 0.09 %ID/g

Q: And the Heart uptake (KB tumor-bearing mice [3]; 0.5 h p.i., i.v., n = 3)?
A: 2.60 ± 0.16 %ID/g

Q: What about the Intestines uptake (KB tumor-bearing mice [3]; 0.5 h p.i., i.v., n = 3) of the same compound?
A: 2.35 ± 0.79 %ID/g

Q: And the Kidney uptake (KB tumor-bearing mice [3]; 0.5 h p.i., i.v., n = 3)?
A: 47.20 ± 2.99 %ID/g

Q: And the Liver uptake (KB tumor-bearing mice [3]; 0.5 h p.i., i.v., n = 3)?
A: 13.91 ± 1.27 %ID/g

Q: What about the Lung uptake (KB tumor-bearing mice [3]; 0.5 h p.i., i.v., n = 3) of the same compound?
A: 2.88 ± 0.09 %ID/g

Q: What about the Muscle uptake (KB tumor-bearing mice [3]; 0.5 h p.i., i.v., n = 3) of the same compound?
A: 1.72 ± 0.10 %ID/g

Q: What about the Spleen uptake (KB tumor-bearing mice [3]; 0.5 h p.i., i.v., n = 3) of the same compound?
A: 3.07 ± 0.03 %ID/g

Q: What about the Stomach uptake (KB tumor-bearing mice [3]; 0.5 h p.i., i.v., n = 3) of the same compound?
A: 2.17 ± 0.70 %ID/g

Q: What about the Thyroid uptake (KB tumor-bearing mice [3]; 0.5 h p.i., i.v., n = 3) of the same compound?
A: 0.05 ± 0.00 %ID

Q: What about the “T/M (tumor/muscle ratio)” value (KB tumor-bearing mice [3]; 2 h p.i.) of the same compound?
A: 1.91

Q: And the Blood uptake (KB tumor-bearing mice [3]; [7])?
A: 1.05 ± 0.08 %ID/g

Q: What about the Bone uptake (KB tumor-bearing mice [3]; [7]) of the same compound?
A: 1.02 ± 0.18 %ID/g

Q: And the Heart uptake (KB tumor-bearing mice [3]; [7])?
A: 0.84 ± 0.05 %ID/g

Q: What about the Intestines uptake (KB tumor-bearing mice [3]; [7]) of the same compound?
A: 1.39 ± 0.15 %ID/g

Q: And the Kidney uptake (KB tumor-bearing mice [3]; [7])?
A: 35.40 ± 4.08 %ID/g

Q: What about the Liver uptake (KB tumor-bearing mice [3]; [7]) of the same compound?
A: 10.22 ± 0.43 %ID/g

Q: And the Lung uptake (KB tumor-bearing mice [3]; [7])?
A: 2.27 ± 0.16 %ID/g

Q: What about the Muscle uptake (KB tumor-bearing mice [3]; [7]) of the same compound?
A: 0.61 ± 0.10 %ID/g

Q: What about the Spleen uptake (KB tumor-bearing mice [3]; [7]) of the same compound?
A: 4.52 ± 0.38 %ID/g

Q: What about the Stomach uptake (KB tumor-bearing mice [3]; [7]) of the same compound?
A: 1.70 ± 0.16 %ID/g

Q: What about the Thyroid uptake (KB tumor-bearing mice [3]; [7]) of the same compound?
A: 0.03 ± 0.00 %ID

Q: What about the Blood uptake (KB tumor-bearing mice [3]; 2 h p.i., i.v., n = 3) of the same compound?
A: 1.08 ± 0.03 %ID/g

Q: What about the Bone uptake (KB tumor-bearing mice [3]; 2 h p.i., i.v., n = 3) of the same compound?
A: 0.87 ± 0.16 %ID/g

Q: And the Heart uptake (KB tumor-bearing mice [3]; 2 h p.i., i.v., n = 3)?
A: 2.29 ± 0.26 %ID/g

Q: And the Intestines uptake (KB tumor-bearing mice [3]; 2 h p.i., i.v., n = 3)?
A: 1.38 ± 0.15 %ID/g

Q: And the Kidney uptake (KB tumor-bearing mice [3]; 2 h p.i., i.v., n = 3)?
A: 51.92 ± 3.10 %ID/g

Q: And the Liver uptake (KB tumor-bearing mice [3]; 2 h p.i., i.v., n = 3)?
A: 11.88 ± 1.22 %ID/g

Q: What about the Lung uptake (KB tumor-bearing mice [3]; 2 h p.i., i.v., n = 3) of the same compound?
A: 2.78 ± 0.57 %ID/g

Q: And the Muscle uptake (KB tumor-bearing mice [3]; 2 h p.i., i.v., n = 3)?
A: 1.27 ± 0.03 %ID/g

Q: And the Spleen uptake (KB tumor-bearing mice [3]; 2 h p.i., i.v., n = 3)?
A: 3.08 ± 0.42 %ID/g

Q: And the Stomach uptake (KB tumor-bearing mice [3]; 2 h p.i., i.v., n = 3)?
A: 2.00 ± 0.33 %ID/g

Q: And the Thyroid uptake (KB tumor-bearing mice [3]; 2 h p.i., i.v., n = 3)?
A: 0.03 ± 0.01 %ID

Q: And the Tumor uptake (KB tumor-bearing mice [3]; 0.5 h p.i., i.v., n = 3)?
A: 3.03 ± 0.10 %ID/g

Q: And the Tumor uptake (KB tumor-bearing mice [3]; [7])?
A: 1.53 ± 0.10 %ID/g

Q: What about the Tumor uptake (KB tumor-bearing mice [3]; 2 h p.i., i.v., n = 3) of the same compound?
A: 2.42 ± 0.44 %ID/g

Q: And the IC50 [4]?
A: 37.9 ± 0.41 nM

Q: And the RCP after incubation [5]?
A: more than 95%

Q: And the RCP after incubation [6]?
A: more than 95%
